Earlier results, collected in patent publication US20130177609A1, “Compositions and Methods for Increasing Bioavailability of Topical Ophthalmic Drugs” (priority 2008, published 2013).

Settings: cited from earlier work

SMILES | Approximate Solubility in Water [µg/mL]
CC(C)NCC(O)COc1ccc(CCOCC2CC2)cc1 (stereo not drawn) [betaxolol] | 450
Brc1c(NC2=NCCN2)ccc2nccnc12 [brimonidine] | 1500
Nc1c(CC(=O)O)cccc1C(=O)c1ccc(Br)cc1 [bromfenac] | 13
C[C@@H]1C[C@H]2[C@@H]3CCC4=CC(=O)C=C[C@]4(C)[C@@]3(F)[C@@H](O)C[C@]2(C)[C@@]1(O)C(=O)CO [dexamethasone] | 9
CCc1cccc2c3c([nH]c12)C(CC)(CC(=O)O)OCC3 (stereo not drawn) [etodolac] | 16
CC(C)OC(=O)CCC/C=C\C[C@@H]1[C@@H](CC[C@@H](O)CCc2ccccc2)[C@H](O)C[C@@H]1O [latanoprost] | 52
CC(C)(C)NC[C@H](O)COc1cccc2c1CCCC2=O [levobutonol] | 250
NC(=O)Cc1cccc(C(=O)c2ccccc2)c1N [nepafenac] | 20 to 50
CN1C(C(=O)Nc2ccccn2)=C(O)c2ccccc2S1(=O)=O [piroxicam] | 30
